In ChEMBL document CHEMBL1201862, “PubChem BioAssay data set” (2004):
Active and inactive are the calls of the source. Rule as the data show it, for most assays here: actives have a measured EC50 and inactives only a lower limit.

How the values were obtained:
[1] = Luminescence Cell-Based Dose Retest to Confirm Inhibitors of Cancer Stem Cells. [Related pubchem assays (depositor defined):AID2717, AID2721]; format: functional; details: Homo sapiens
[2] = Luminescence Cell-Based Dose Confirmation HTS to Identify Activators of 5'UTR Stem-Loop Driven Alpha-Synuclein mRNA Translation in H4 Neuroglioblastoma Cells. [Related pubchem assays: 1829 (Project Summary), 1814 (Primary HTS)]; format: functional
[3] = Luminescence Cell-Based Dose Response HTS to Identify Activators of Luciferase Translation or Activity in H4 […] Cells. [Related pubchem assays: 1829 (Project Summary), 1814 (Primary HTS)]; format: functional
H4 = test: Luminescence Cell-Based Dose Response HTS to Identify Activators of 5'UTR Stem-Loop Driven Prion Protein mRNA Translation in H4 Neuroglioblastoma Cells. [Related pubchem assays: 1829 (Project Summary), 1814 (Primary HTS)]; format: functional; details: Homo sapiens
[4] = biological target: T1, Replicative DNA helicase DnaB (Mycobacterium tuberculosis, UniProt P9WMR3); test: DnaB intein splicing inhibitors, dose response, biochemical, cell-free fluorescence (AID 449749); format: functional
T1 sequence (P9WMR3 whole entry): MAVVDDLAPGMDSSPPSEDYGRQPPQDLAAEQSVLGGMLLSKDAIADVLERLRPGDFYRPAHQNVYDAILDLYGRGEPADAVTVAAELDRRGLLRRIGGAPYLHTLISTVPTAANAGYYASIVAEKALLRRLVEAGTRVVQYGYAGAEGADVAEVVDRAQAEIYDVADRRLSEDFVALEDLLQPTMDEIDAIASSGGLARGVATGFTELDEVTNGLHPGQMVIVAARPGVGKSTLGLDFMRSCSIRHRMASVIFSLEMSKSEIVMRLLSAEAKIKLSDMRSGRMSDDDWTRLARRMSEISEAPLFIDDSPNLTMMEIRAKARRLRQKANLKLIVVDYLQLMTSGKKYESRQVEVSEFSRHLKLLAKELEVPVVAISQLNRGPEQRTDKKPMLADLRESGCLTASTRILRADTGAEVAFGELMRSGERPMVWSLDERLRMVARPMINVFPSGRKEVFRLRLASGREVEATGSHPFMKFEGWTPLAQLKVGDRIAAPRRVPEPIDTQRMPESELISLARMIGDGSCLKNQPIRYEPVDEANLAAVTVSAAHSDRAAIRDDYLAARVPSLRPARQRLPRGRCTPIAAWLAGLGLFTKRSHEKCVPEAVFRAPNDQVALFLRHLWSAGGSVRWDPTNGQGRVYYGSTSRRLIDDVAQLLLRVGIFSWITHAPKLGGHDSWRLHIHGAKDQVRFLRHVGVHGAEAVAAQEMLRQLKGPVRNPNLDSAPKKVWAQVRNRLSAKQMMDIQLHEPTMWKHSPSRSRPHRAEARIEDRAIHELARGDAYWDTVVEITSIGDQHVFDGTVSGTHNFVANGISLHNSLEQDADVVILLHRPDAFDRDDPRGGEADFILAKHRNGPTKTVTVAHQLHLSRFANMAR

Protein RecA = biological target: T2, Protein RecA (Mycobacterium tuberculosis, UniProt P9WHJ3); test: Fluorescence Cell-Free Homogeneous Dose Retest to Identify Inhibitors of RecA-Intein Splicing Activity. [Related pubchem assays (depositor defined):AID2097, AID2223, AID489010, AID492950]; format: functional
T2 sequence (P9WHJ3 whole entry): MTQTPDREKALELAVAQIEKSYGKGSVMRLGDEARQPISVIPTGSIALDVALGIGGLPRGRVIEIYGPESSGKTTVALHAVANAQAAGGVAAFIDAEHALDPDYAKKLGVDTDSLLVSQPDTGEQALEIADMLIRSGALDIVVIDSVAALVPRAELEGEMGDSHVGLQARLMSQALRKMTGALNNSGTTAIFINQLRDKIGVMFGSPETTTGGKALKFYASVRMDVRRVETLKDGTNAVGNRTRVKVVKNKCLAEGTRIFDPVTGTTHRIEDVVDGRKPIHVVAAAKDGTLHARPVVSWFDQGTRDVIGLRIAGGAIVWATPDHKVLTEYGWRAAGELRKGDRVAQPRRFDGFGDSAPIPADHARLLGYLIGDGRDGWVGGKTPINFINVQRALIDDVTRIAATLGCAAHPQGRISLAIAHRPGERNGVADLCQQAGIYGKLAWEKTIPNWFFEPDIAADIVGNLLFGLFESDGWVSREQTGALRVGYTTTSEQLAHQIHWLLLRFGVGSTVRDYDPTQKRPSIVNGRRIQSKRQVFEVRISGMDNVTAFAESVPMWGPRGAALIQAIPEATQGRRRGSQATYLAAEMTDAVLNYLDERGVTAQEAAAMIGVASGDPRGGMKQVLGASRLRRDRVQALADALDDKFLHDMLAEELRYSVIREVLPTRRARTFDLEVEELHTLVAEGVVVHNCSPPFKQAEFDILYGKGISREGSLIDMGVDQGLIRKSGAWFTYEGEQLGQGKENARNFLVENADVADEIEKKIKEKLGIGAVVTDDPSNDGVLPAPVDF

[5] = biological target: T3, Corticotropin-releasing factor receptor 2/Corticotropin-releasing factor-binding protein (Homo sapiens, UniProt P24387+Q13324); test: Dose Response confirmation of uHTS hits for small molecule antagonists of the CRF-binding protein and CRF-R2 receptor complex.; format: functional; details: read-out: IC50_Mean
T3 sequence (Q13324 whole entry): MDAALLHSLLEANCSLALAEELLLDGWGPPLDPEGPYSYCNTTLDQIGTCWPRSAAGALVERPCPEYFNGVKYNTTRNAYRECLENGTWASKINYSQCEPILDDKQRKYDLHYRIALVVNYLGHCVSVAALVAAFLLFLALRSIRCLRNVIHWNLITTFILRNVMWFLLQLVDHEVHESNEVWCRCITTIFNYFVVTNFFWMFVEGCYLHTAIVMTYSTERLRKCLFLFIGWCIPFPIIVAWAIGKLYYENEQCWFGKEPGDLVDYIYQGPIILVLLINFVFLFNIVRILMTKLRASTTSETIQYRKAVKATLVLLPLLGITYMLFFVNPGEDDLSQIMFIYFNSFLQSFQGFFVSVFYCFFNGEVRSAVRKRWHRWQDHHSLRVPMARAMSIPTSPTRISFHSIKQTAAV
T3 sequence (P24387 whole entry): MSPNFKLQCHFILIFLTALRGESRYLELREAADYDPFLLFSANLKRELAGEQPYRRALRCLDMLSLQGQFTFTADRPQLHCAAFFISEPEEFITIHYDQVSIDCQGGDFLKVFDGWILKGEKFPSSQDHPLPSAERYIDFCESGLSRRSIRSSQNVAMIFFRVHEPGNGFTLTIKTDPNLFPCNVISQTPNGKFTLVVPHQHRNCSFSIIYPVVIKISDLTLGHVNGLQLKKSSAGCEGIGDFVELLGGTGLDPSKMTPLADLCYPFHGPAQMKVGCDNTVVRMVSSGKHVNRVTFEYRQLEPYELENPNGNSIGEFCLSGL

[6] = biological target: T3, Corticotropin-releasing factor receptor 2/Corticotropin-releasing factor-binding protein; test: activators of CRF receptor 2 with binding protein – uHTS hits, confirmation (AID 602473); format: functional; details: read-out: EC50_Mean
INS1 = test: INS-1E survival protection against cytokine death – cell-based, luminescence, retest, dose response (AID 449756); format: functional; details: Rattus norvegicus;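 also: cell death triggered by IL-1 beta plus TNF-alpha plus IFN-gamma mixture; protective hits raise ATP signal compared with cytokine alone wells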
[7] = system: Streptococcus sp. 'group A'; test: Streptococcus pyogenes SK(-)GAS viability under kanamycin – luminescence, BacTiterGlo, confirmation, counter-screen for streptokinase expression inhibitor project, dose response (AID 1900); format: functional, organism-based
Streptococcus = test: GAS UMAA2166 growth inhibition – luminescence, BacTiterGlo, counter-screen for streptokinase expression inhibitor project, dose response (AID 1915); format: functional, organism-based;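 also: potency for reduction of bacterial viability or growth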

SMILES: CC#CCOC(=O)c1c(C)nc2sc3c(c2c1N)CCC(O)C3 (stereo not drawn)
- AC50 [1]: 4.7 µM (active)

SMILES: CCOC(=O)c1cnn(-c2ccc(C(F)(F)F)cn2)c1N
- EC50 [2]: 21.1 µM (active)
- EC50 [3]: > 120 µM (not active)
- EC50 (H4): > 120 µM (not active)

SMILES: CC1=NNC(=O)C1Cc1ccc(F)cc1 (stereo not drawn)
- AC50 [4]: 14 µM (active)
- EC50 (Protein RecA): 14.2 µM (active)

SMILES: COc1ccc(C(c2c(C)n[nH]c2O)c2c(C)n[nH]c2O)cc1Br
- AC50 [4]: 0.32 µM (active)
- EC50 (Protein RecA): 0.289 µM (active)

SMILES: Cn1nc(/C=C/c2ccccc2)ccc1=O
- EC50 [2]: 10.9 µM (active)
- EC50 [3]: 15.2 µM (active)
- EC50 (H4): 14.1 µM (active)

SMILES: COc1ccccc1NC(=O)Nc1ccc(-n2ccc(C(F)(F)F)n2)cc1
- AC50 [1]: 4.01 µM (active)

SMILES: O=C(C1CCCN(S(=O)(=O)c2ccc([N+](=O)[O-])cc2)C1)N1CCCCC1 (stereo not drawn)
- AC50 [1]: > 195 µM (inactive)

SMILES: CCOC(=O)C(=NCCCN1CCOCC1)NNc1cccc(C(F)(F)F)c1
- AC50 [1]: 8.17 µM (active)

SMILES: Fc1ccc(NC(S)=Nc2cc(-c3ccccc3)[nH]n2)cc1Cl
- AC50 [1]: 3.05 µM (active)

SMILES: Cc1ccc(CN2CCN(C3CCOCC3)CC2CCO)cc1 (stereo not drawn)
- IC50 [5]: > 47.1 µM (inactive)
- EC50 [6]: > 53 µM (inactive)

SMILES: Cc1cc(C(=O)CSc2cccc[n+]2[O-])c(C)n1-c1ccc(Br)cc1
- EC50 [2]: < 0.1 µM (active)
- EC50 [3]: 55.6 µM (active)
- EC50 (H4): > 120 µM (not active)

SMILES: Cc1ccc2nsnc2c1NS(=O)(=O)c1c(C)ccc2nsnc12
- AC50 [4]: 37.8 µM (active)
- EC50 (Protein RecA): 24.8 µM (active)

SMILES: Cc1cccc(C(=O)NC(=S)N2CCN(C(=S)NC(=O)c3cccc(C)c3)CC2)c1
- IC50 [5]: > 47.1 µM (inactive)
- EC50 [6]: > 53 µM (inactive)

SMILES: Clc1ccc(-c2cnc(Oc3ccccc3)nc2)cc1
- EC50 [2]: 2.63 µM (active)
- EC50 [3]: 0.194 µM (active)

SMILES: Cc1csc2c(N3CCN(C(=O)c4ccc(C(C)(C)C)cc4)CC3)ncnc12
- AC50 (INS1): 13.2 µM (active)

SMILES: COc1ccc(C(CC(=O)Nc2ccccn2)N2Cc3ccccc3C2=O)cc1 (stereo not drawn)
- EC50 [2]: > 60 µM (not active)
- EC50 [3]: 16.4 µM (active)
- EC50 (H4): > 120 µM (not active)

SMILES: Cc1ccc(NC(=O)CC2SCCNC2=O)cc1Cl (stereo not drawn)
- EC50 [2]: 14.5 µM (active)
- EC50 [3]: 30.9 µM (active)
- EC50 (H4): > 120 µM (not active)

SMILES: Cc1ccccc1C(=O)N1CCN(c2ccc(NC(=O)c3cccnc3)cc2)CC1
- AC50 (INS1): 7.89 µM (active)

SMILES: O=C(Nc1cccn2ncnc12)c1ccccc1
- EC50 [2]: > 120 µM (not active)
- EC50 [3]: 14.8 µM (active)
- EC50 (H4): 23.5 µM (active)

SMILES: COc1ccc(CCc2nc(-c3cccs3)no2)cc1
- EC50 [2]: 19.2 µM (active)
- EC50 [3]: 6.22 µM (active)
- EC50 (H4): 23.3 µM (active)

SMILES: COc1ccc(-c2ccc(C)cc2)cc1[C@H]1[C@@H]2C=CCC[C@@]2(C)C(=O)N1Cc1ccccc1
- AC50 [1]: 3.36 µM (active)

SMILES: Cc1cc(C)n(C(=O)c2cc3sccc3[nH]2)n1
- EC50 [2]: 6.99 µM (active)
- EC50 [3]: 14.6 µM (active)
- EC50 (H4): 83.6 µM (inconclusive)

SMILES: Cc1n[nH]c(O)c1C(c1ccc([N+](=O)[O-])cc1)c1c(C)n[nH]c1O
- AC50 [4]: 0.704 µM (active)
- EC50 (Protein RecA): 0.27 µM (active)

SMILES: Clc1ccc(-c2nnc(CSc3nnc(-c4cccs4)o3)o2)cc1
- IC50 [5]: > 47.1 µM (inactive)
- EC50 [6]: > 53 µM (inactive)

SMILES: CCOc1cc(/C=C2\C(=O)N(c3ccc(C(N)=O)cc3)N=C2C)ccc1OC(=O)c1cccs1
- AC50 [4]: 2.35 µM (active)
- EC50 (Protein RecA): 1.93 µM (active)

SMILES: O=C(Nc1ccccc1N(C(=O)c1ccco1)S(=O)(=O)c1cccs1)c1ccco1
- AC50 [4]: 5.6 µM (active)
- EC50 (Protein RecA): 8.58 µM (active)

SMILES: COc1cccc(C2CC(c3cccs3)=NN2C(=S)Nc2ccccc2)c1OC (stereo not drawn)
- IC50 [5]: > 47.1 µM (inactive)
- EC50 [6]: > 53 µM (inactive)

SMILES: Cc1ccccc1NC(=O)C1Cc2ccccc2CN1C(=O)c1ccco1 (stereo not drawn)
- EC50 [2]: 35.6 µM (active)
- EC50 [3]: 39.3 µM (active)
- EC50 (H4): 12.7 µM (active)

SMILES: CCOC(=O)c1sc(NC(=O)c2cccc(S(=O)(=O)N3CCN(C)CC3)c2)cc1C
- IC50 [5]: > 47.1 µM (inactive)
- EC50 [6]: > 53 µM (inactive)

SMILES: O=C(NCc1ccccn1)C1CCN(S(=O)(=O)c2c[nH]cn2)CC1
- IC50 [5]: > 47.1 µM (inactive)
- EC50 [6]: > 53 µM (inactive)

SMILES: CC(Oc1cccc(Cl)c1)C(=O)NNC(=O)c1cccnc1 (stereo not drawn)
- IC50 [5]: > 47.1 µM (inactive)
- EC50 [6]: > 53 µM (inactive)

SMILES: O=c1c2c3nc4ccccc4nc3n(/N=C/c3ccccn3)c2ncn1-c1ccccc1
- EC50 [2]: > 120 µM (not active)
- EC50 [3]: 13 µM (active)
- EC50 (H4): > 120 µM (not active)

SMILES: Oc1ccc(/C=N/Nc2nc(N3CCCCCC3)nc(N3CCCCCC3)n2)c(O)c1
- EC50 [7]: 1.13 µM (active)
- EC50 (Streptococcus): 1.86 µM (active)
- IC50 [5]: > 47.1 µM (inactive)
- EC50 [6]: > 53 µM (inactive)

SMILES: COc1ccc(OC)c(/C=N/c2ccccc2-c2nc3ccccc3[nH]2)c1
- EC50 [2]: 13.1 µM (active)
- EC50 [3]: 8.07 µM (active)
- EC50 (H4): 10.8 µM (active)
